In patent publication US11919901B2 (Syndax Pharmaceuticals, Inc., priority 2021, dated 2024):

System: MV4-11 cells
Assay: Cell proliferation assay MV4;11 (CellTiter-Glo, 72 hours)
Type: cell-based
Details: Homo sapiens; MV4;11 leukemia cell line, 72 hours; read-out: MV4; 11 IC50
Protocol: Compounds were evaluated for its capacity to inhibit the proliferation of the MLLr leukemia cell line MV4-11 that harbors an MLL1-AF4 fusion protein. MV4-11 cells were cultured for 72 hours with limiting dilutions of compounds and viability was measured using CellTiter-Glo.
Compounds were dissolved to obtain as 10 mM solution in DMSO. The stock was diluted 1:5 to the top concentration of 2 mM in 100% DMSO. For IC50 determination, serial 1:3.16 dilutions were prepared in 100% DMSO by diluting 20 μL into 43.5 μL of DMSO for 8 concentrations. Each prepared DMSO solution were further diluted 1:500 in the cell culture media to obtain the 2× dosing solutions. The final concentrations of tested compounds in the cell culture media ranged from 0.632 nM to 2000 nM.
MV4-11 cells were cultured in IMDM with 10% FBS and 1× Penicillin-Streptomycin at 5% CO2 and 37° C. A cell suspension was prepared containing 15,000 cells/ml in the culture medium and 100 μL of this suspension was added per well to a 96-well cell culture plate. Then, 100 μL of 2× dosing media containing test compounds were added bringing the total volume to 200 μL. These cells were cultured for 72 hours at 37° C. and 5% CO2 in a humidified incubator.
After 72 hours, the cultured cells were mixed and 100p L was transferred to a 96-well black plate. Cell Titer Glo (100 μl) was then added to this plate. The plate was mixed with shaking for 15 mins at RT, the luminescence was then measured using Tecan Spark 20M spectrophotometer. Cell Viability (%) was determined by RLU of test/RLU average vehicle control*100 and % max inhibition was determined by 100−(% cell viability remaining at the top concentration of compound).

Compound | IC50
CC(C)N(C(=O)c1cc(F)ccc1Oc1cncnc1N1CC2(CCN(C[C@@H]3CC[C@@H](NS(N)(=O)=O)CO3)CC2)C1)C(C)C [Example 90, 5-Fluoro-N,N-diisopropyl-2-((4-(7-(((2S,5R)-5-(sulfamoylamino)tetrahydro-2H-pyran-2-yl)methyl)-2,7-diazaspiro[3.5]nonan-2-yl)pyrimidin-5-yl)oxy)benzamide] | < 100 nM
CCS(=O)(=O)N[C@@H]1CC[C@@H](CN2CCC3(CC2)CN(c2ncncc2Oc2ccc(F)cc2C(=O)N(C(C)C)[C@@H]2CC[C@@H]2O)C3)OC1 [Example 258, 2-((4-(7-(((2S,5R)-5-(Ethylsulfonamido)tetrahydro-2H-pyran-2-yl)methyl)-2,7-diazaspiro[3.5]nonan-2-yl)pyrimidin-5-yl)oxy)-5-fluoro-N-((1R,2S)-2-hydroxycyclobutyl)-N-isopropylbenzamide] | < 100 nM
CNS(=O)(=O)N[C@H]1CC[C@H](CN2CCC3(CC2)CN(c2ncncc2Oc2ccc(F)cc2C(=O)N(C(C)C)C2CC2)C3)OC1 (stereo in doubt) [Example 146, N-Cyclopropyl-5-fluoro-N-isopropyl-2-((4-(7-(((2R,5S)-5-((N-methylsulfamoyl)amino)tetrahydro-2H-pyran-2-yl)methyl)-2,7-diazaspiro[3.5]nonan-2-yl)pyrimidin-5-yl)oxy)benzamide] | < 100 nM
CC(C)N(C(=O)c1cc(F)ccc1Oc1cncnc1N1CC2(CCN(C[C@@H]3CC[C@@H](NS(=O)(=O)N4CC5(CCO5)C4)CO3)CC2)C1)C(C)C [Example 221, 2-((4-(7-(((2S,5R)-5-(1-Oxa-6-azaspiro[3.3]heptane-6-sulfonamido)tetrahydro-2H-pyran-2-yl)methyl)-2,7-diazaspiro[3.5]nonan-2-yl)pyrimidin-5-yl)oxy)-5-fluoro-N,N-diisopropylbenzamide] | < 100 nM
C[C@@H]1COC[C@@H](C)N1C(=O)c1cc(F)ccc1Oc1cncnc1N1CC2(CCN(C[C@@H]3CC[C@@H](NS(=O)(=O)N4CCCC4)CO3)CC2)C1 [Example 124, N-((3R,6S)-6-((2-(5-(2-((3R,5R)-3,5-Dimethylmorpholine-4-carbonyl)-4-fluorophenoxy)pyrimidin-4-yl)-2,7-diazaspiro[3.5]nonan-7-yl)methyl)tetrahydro-2H-pyran-3-yl)pyrrolidine-1-sulfonamide] | < 100 nM
CC(C)N(C(=O)c1cc(F)ccc1Oc1cncnc1N1CC2(CCN(C[C@@H]3CC[C@@H](NS(C)(=O)=O)CO3)CC2)C1)C(C)C [Example 12, 5-Fluoro-N,N-diisopropyl-2-((4-(7-(((2S,5R)-5-(methylsulfonamido)tetrahydro-2H-pyran-2-yl)methyl)-2,7-diazaspiro[3.5]nonan-2-yl)pyrimidin-5-yl)oxy)benzamide] | < 100 nM
CCNS(=O)(=O)N[C@@H]1CC[C@@H](CN2CCC3(CC2)CN(c2ncnnc2Oc2ccc(F)cc2C(=O)N(CC(F)F)C(C)C)C3)OC1 [Example 188, N-(2,2-Difluoroethyl)-2-((5-(7-(((2S,5R)-5-((N-ethylsulfamoyl)amino)tetrahydro-2H-pyran-2-yl)methyl)-2,7-diazaspiro[3.5]nonan-2-yl)-1,2,4-triazin-6-yl)oxy)-5-fluoro-N-isopropylbenzamide] | < 100 nM
CC(C)N(C(=O)c1cc(F)ccc1Oc1cncnc1N1CC2(CCN(C[C@@H]3CC[C@@H](NS(=O)(=O)N4CCCC4)CO3)CC2)C1)[C@@H]1CCOC1 [Example 169, 5-Fluoro-N-isopropyl-2-((4-(7-(((2S,5R)-5-(pyrrolidine-1-sulfonamido)tetrahydro-2H-pyran-2-yl)methyl)-2,7-diazaspiro[3.5]nonan-2-yl)pyrimidin-5-yl)oxy)-N-((R)-tetrahydrofuran-3-yl)benzamide] | < 100 nM
CC(C)N(C(=O)c1cc(F)ccc1Oc1nncnc1N1CC2(CCN(C[C@@H]3CC[C@@H](NS(=O)(=O)C4CC4)CO3)CC2)C1)C(C)C [Example 196, 2-((5-(7-(((2S,5R)-5-(Cyclopropanesulfonamido)tetrahydro-2H-pyran-2-yl)methyl)-2,7-diazaspiro[3.5]nonan-2-yl)-1,2,4-triazin-6-yl)oxy)-5-fluoro-N,N-diisopropylbenzamide] | < 100 nM
